Article PMC3705412, “PTP1B Inhibitory and Anti-Inflammatory Effects of Secondary Metabolites Isolated from the Marine-Derived Fungus Penicillium sp. JF-55” (Marine Drugs, 2013)
pIC50: −log10 of the molar value.

How the values were obtained:
[1] = system: COX-2-derived PGE2 production in murine peritoneal macrophages; experiment: PGE2 production in LPS-stimulated macrophages, ELISA; type: cell-based, murine (C57BL/6 mice); conditions: Mus musculus, Peritoneal macrophage; pre-treated 12 h, LPS 1 μg/mL 18 h
Description: (§1) C57BL/6 mice were purchased from Orient Bio Co. (Sungnam, Kyung-Kido, Korea). TG-elicited peritoneal macrophages were harvested four days after intraperitoneal (i.p.) injection of 3 mL of TG [37]. Peritoneal lavage was performed using 8 mL of Hanks’ Balanced Salt Solution containing 10 U/mL heparin. The cells were distributed in Roswell Park Memorial Institute medium (RPMI) supplemented with 10% heat-inactivated FBS, in 6-well tissue culture plates (5 × 10^6 cells/mL). The level of PGE2, TNF-α or IL-1β present in each sample was determined using a commercially available kit from R & D Systems. The assay was performed according to the manufacturer’s instructions. Briefly, murine peritoneal macrophages were cultured in 24-well plates, pre-incubated for 12 h with different concentrations of compounds 1–3, and then stimulated for 18 h with LPS. The cell culture supernatants were then immediately collected after treatment and centrifuged at 13,000× g for 2 min to remove particulate matter. The medium was added to a 96-well plate pre-coated with affinity-purified PGE2-specific polyclonal antibodies or the medium was added to a 96-well plate pre-coated with affinity-purified polyclonal antibodies that were specific to mouse TNF-α or IL-1β. An enzyme-linked polyclonal antibody specific for PGE2, mouse TNF-α or IL-1β was added to the wells for 20 h, followed by a final wash to remove any unbound antibody-enzyme reagent. A substrate solution was added, and the intensity of the color produced, which was measured at 450 nm (the correction wavelength was set at 540 nm or 570 nm), was proportional to the amount of PGE2, TNF-α or IL-1β present.

[2] = target: T1, PTP1B (human, recombinant) (Homo sapiens, UniProt P18031); experiment: PTP1B assay (pNPP hydrolysis); type: biochemical; conditions: for pIC50: 2 mM pNPP, pH 6.0, 30 °C, 30 min, read-out: PTP1B inhibitory activity IC50
T1 construct: purchased BIOMOL Research Laboratories, Inc
T1 sequence (P18031 1-435): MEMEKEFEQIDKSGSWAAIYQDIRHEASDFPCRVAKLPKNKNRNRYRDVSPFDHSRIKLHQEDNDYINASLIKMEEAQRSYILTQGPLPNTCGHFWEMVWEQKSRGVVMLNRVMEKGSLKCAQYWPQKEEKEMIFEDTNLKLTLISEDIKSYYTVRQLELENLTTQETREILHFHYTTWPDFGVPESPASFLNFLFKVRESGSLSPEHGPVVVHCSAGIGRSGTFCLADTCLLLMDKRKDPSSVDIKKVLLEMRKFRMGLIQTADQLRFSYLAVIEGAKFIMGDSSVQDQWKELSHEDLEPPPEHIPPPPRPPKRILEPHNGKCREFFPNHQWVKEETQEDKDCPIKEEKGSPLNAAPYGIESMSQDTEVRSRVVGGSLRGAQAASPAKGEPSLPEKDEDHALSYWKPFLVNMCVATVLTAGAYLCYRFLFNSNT
Description: PTP1B (human, recombinant) was purchased from BIOMOL Research Laboratories, Inc. Enzyme activity was measured in a reaction mixture containing 2 mM p-nitrophenyl phosphate (pNPP) in 50 mM citrate, pH 6.0 (composition: 0.1 M NaCl, 1 mM EDTA, and 1 mM dithiothreitol (DTT)). The reaction mixture was placed in an incubator maintained at 30 °C for 30 min, and the reaction was terminated by the addition of 1 N NaOH. The amount of p-nitrophenol produced was estimated by measuring the increase in absorbance at 405 nm. The nonenzymatic hydrolysis of 2 mM pNPP was corrected by measuring the increase in absorbance at 405 nm in the absence of PTP1B enzyme. For the kinetic analysis, the reaction mixture consisted of different concentrations of pNPP as a PTP1B substrate in the absence or presence of compound 1, and assays were performed as described above. The Michaelis-Menten constant (Km) and maximum velocity (Vmax) of PTP1B were determined by the Lineweaver-Burk plot using a GraphPad Prism® 4 program (GraphPad Software Inc., San Diego, CA, USA).

[3] = system: CD4; set-up: method as in doi:10.1351/pac199466102383; conditions: previously reported ref 43; cited from earlier work
[4] = system: iNOS-derived NO production in murine peritoneal macrophages; experiment: Nitrite (NO) production in LPS-stimulated macrophages, Griess reaction; type: cell-based, murine (C57BL/6 mice); conditions: Mus musculus, Peritoneal macrophage; pre-treated 12 h, LPS 1 μg/mL 18 h
Description: The expression of pro-inflammatory enzymes, including COX-2 and iNOS, plays an important role in immune-activated macrophages via the production of COX-2-derived PGE2 and iNOS-derived NO [20, 21]. To investigate the effects of compounds on iNOS-derived NO and COX-2-derived PGE2 production, and iNOS and COX-2 expression in LPS-stimulated macrophages, murine peritoneal macrophages were stimulated with LPS (1 μg/mL) for 18 h in the presence or absence of non-cytotoxic concentrations of compounds 1–3 (Figure S1). […] The finding that penstyrylpyrone (1) suppressed LPS-induced pro-inflammatory mediators, such as NO, PGE2, iNOS, and COX-2, led further investigation of the effects of penstyrylpyrone (1) on LPS-induced TNF-α and IL-1β production, which are other pro-inflammatory mediators.
C57BL/6 mice were purchased from Orient Bio Co. (Sungnam, Kyung-Kido, Korea). TG-elicited peritoneal macrophages were harvested four days after intraperitoneal (i.p.) injection of 3 mL of TG [37]. Peritoneal lavage was performed using 8 mL of Hanks’ Balanced Salt Solution containing 10 U/mL heparin. The cells were distributed in Roswell Park Memorial Institute medium (RPMI) supplemented with 10% heat-inactivated FBS, in 6-well tissue culture plates (5 × 10^6 cells/mL).
The production of nitrite, a stable end product of NO oxidation, was used as a measure of iNOS activity. The nitrite present in the conditioned medium was determined using a method based on the Griess reaction.

[5] = system: TNF-α production in murine peritoneal macrophages; experiment: TNF-α production in LPS-stimulated macrophages, ELISA; type: cell-based, murine (C57BL/6 mice); conditions: Mus musculus, Peritoneal macrophage; pre-treated 12 h, LPS 1 μg/mL 18 h
Description: as §1

[6] = system: IL-1β production in murine peritoneal macrophages; experiment: IL-1β production in LPS-stimulated macrophages, ELISA; type: cell-based, murine (C57BL/6 mice); conditions: Mus musculus, Peritoneal macrophage; pre-treated 12 h, LPS 1 μg/mL 18 h
Description: as §1

Row | pIC50 [1] | pIC50 [2] | Mode of PTP1B inhibition (Lineweaver-Burk, non-linear regression) ([2]; different concentrations of pNPP) | pIC50 [4] | pIC50 [5] | pIC50 [6] | Structure (SMILES) | CD4-binding activity [3]
1 | < 4.40 | 5.72 | competitive | < 4.40 | < 4.40 | < 4.40 | CC1=Cc2oc3cc(O)c(O)c(C(=O)O)c3c(=O)c2CO1 [Anhydrofulvic acid (2), anhydrofulvic acid] | weak
2 | < 4.40 | < 4.59 |  | < 4.40 | < 4.40 | < 4.40 | Cc1cc(=O)c2c(o1)-c1c(cc(O)c(O)c1C(=O)O)OC2 [Citromycetin (3), citromycetin] | weak
